What was measured:
[1] = system: NCI-H1155 cells (human non small cell lung cancer); test: NCI-H1155 xenograft study; format: in vivo, BALB/c nude mice
Method: For the NCI-H1155 xenograft study, cells (human non small cell lung cancer, ATCC CRL-5818) were maintained in vitro as suspension culture in ATCC-formulated DMEM:F12 Medium supplemented as recommended by the provider and kept at 37° C. in an atmosphere of 5% CO2 in air. Cells (0.5 millions) were resuspended in 0.2 mL of PBS with Matrigel (50:50) and inoculated into female BALB/c nude mice, 6-8 weeks old, and allowed to grow to 150 mm^3 in size. Mice were dosed orally with either vehicle or compound 10 at 1 or 3 mg per kilogram daily (filled squares and filled triangles, respectively) or 6 mg per kilogram for 5 continuous days followed by 9 days treatment holidays (5 On-9 off) (filled inverted triangles). Compound formulations were prepared fresh daily in 5% vDMSO/95%(30% w/v HP-β-CD in water). Gemcitabine dosed at 40 mg per kilogram, IP, Q4Dx5 was used as a positive control (filled rhombi). For this study, mice were dosed for 21 days with tumor volumes measured every 3 days.

GSPT1 = GSPT1 (Homo sapiens, UniProt P15170+Q96SW2); test: GSPT1 degradation in ABC-1 cells; format: cell-based; parameters: endogenous in cells
Sequence of GSPT1 (P15170 whole entry): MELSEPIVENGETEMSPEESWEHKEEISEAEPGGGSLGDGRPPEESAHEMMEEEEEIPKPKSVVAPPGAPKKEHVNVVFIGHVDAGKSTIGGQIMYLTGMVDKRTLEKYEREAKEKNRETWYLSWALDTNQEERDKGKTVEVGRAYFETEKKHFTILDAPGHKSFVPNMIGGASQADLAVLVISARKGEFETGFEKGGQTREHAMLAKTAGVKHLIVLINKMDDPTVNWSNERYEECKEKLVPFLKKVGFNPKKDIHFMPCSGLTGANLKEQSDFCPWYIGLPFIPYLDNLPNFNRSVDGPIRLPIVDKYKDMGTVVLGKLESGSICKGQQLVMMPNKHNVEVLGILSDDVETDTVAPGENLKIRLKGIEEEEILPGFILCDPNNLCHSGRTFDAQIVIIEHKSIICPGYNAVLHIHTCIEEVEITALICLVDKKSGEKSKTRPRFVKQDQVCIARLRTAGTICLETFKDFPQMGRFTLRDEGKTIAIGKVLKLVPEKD
Sequence of GSPT1 (Q96SW2 whole entry): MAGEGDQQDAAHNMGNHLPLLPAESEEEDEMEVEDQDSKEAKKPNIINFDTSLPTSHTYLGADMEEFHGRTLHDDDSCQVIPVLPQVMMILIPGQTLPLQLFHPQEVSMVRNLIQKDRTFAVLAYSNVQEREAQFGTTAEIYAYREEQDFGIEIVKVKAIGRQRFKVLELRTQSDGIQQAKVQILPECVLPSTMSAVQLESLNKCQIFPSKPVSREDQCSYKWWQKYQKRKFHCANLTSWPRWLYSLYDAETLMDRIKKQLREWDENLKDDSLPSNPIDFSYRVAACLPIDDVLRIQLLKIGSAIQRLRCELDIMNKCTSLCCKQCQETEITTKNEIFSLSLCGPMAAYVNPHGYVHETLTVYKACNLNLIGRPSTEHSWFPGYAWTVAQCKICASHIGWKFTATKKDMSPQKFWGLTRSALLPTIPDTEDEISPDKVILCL
Sequence of GSPT1 (Q16531 2-1140 partner limits assumed): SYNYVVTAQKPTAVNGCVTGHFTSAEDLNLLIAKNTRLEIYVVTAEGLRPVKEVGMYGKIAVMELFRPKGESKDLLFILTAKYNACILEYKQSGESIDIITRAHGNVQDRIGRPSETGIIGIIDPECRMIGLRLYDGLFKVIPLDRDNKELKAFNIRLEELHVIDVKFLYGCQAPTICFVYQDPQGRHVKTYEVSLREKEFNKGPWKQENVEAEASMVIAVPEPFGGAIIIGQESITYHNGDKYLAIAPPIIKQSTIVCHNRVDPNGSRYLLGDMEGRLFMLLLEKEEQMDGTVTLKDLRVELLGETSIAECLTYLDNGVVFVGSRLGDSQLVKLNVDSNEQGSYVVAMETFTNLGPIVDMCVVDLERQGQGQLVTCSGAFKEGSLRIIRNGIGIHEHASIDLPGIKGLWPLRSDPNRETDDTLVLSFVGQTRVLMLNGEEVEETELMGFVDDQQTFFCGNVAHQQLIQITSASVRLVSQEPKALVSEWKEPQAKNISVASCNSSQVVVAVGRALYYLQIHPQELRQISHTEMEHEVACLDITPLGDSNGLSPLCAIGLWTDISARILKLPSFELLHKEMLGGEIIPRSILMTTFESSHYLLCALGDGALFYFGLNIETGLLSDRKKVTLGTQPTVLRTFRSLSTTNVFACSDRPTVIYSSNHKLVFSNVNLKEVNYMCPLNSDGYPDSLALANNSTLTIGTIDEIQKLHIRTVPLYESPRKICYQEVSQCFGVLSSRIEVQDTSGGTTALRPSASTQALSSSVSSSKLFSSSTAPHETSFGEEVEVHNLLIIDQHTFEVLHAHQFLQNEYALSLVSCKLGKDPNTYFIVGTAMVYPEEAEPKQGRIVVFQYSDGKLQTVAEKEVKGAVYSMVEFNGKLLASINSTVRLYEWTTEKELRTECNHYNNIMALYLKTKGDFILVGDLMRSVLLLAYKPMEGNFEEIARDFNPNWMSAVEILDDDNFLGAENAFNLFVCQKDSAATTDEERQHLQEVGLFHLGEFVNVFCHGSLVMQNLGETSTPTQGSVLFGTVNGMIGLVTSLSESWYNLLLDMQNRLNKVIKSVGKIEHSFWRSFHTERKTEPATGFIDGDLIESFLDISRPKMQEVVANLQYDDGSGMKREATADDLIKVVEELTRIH
Method: GSPT1 was degraded by compound 10 after six hours of treatment in high N-Myc NCI-H1155 and ABC-1 cells with a DC50 of 3 nM and 22 nM, respectively (x-axys represents […]M concentration of compound 10; y-axis represents the viability in %).

Cc1ccc(NC(=O)OCc2ccc3c(c2)C(=O)N(C2CCC(=O)NC2=O)C3)cc1Cl (stereo not drawn) [Compound 10]
Tumor growth (FIG. 3A) ([1]; 1 mg/kg once daily, oral): tumor growth was suppressed for two weeks
Tumor size (FIG. 3A) ([1]; 3 mg/kg once daily, oral): tumor size decreased, became undetectable by day eight and remained so until the end of the study at day 21
Tumor size (FIG. 3A) ([1]; 6 mg/kg dosed for five days on and nine days off, oral): tumor size decreased, became undetectable by day eight and remained so until the end of the study at day 21
body weight ([1]; oral administration, NCI-H1155 xenograft mice): no body weight loss observed
Tumor growth (FIG. 3A) ([1]; oral administration, all dose groups): tumor growth inhibition
extent of GSPT1 degradation (GSPT1): complete degradation

From US20230348418A1, “ISOINDOLINONE COMPOUNDS” (Monte Rosa Therapeutics, Inc., priority 2021, published 2023)
